Assay results taken from BindingDB's records for PubMed 11714898 (Creighton University, 2001).
Residues, ends and D or L forms follow the SMILES beside them.

Tests used:
[1] = biological target: T1, Receptor activity-modifying protein 1 (Sus scrofa, UniProt Q867C0)
T1 sequence (Q867C0 whole entry): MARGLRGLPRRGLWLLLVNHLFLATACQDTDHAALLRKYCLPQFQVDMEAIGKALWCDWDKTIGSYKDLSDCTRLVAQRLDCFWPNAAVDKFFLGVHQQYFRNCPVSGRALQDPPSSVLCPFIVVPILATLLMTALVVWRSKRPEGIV

[2] = biological target: Calcitonin gene-related peptide type 1 receptor (Sus scrofa, UniProt Q8WN93)
Calcitonin gene-related peptide type 1 receptor, sequence (Q8WN93 whole entry): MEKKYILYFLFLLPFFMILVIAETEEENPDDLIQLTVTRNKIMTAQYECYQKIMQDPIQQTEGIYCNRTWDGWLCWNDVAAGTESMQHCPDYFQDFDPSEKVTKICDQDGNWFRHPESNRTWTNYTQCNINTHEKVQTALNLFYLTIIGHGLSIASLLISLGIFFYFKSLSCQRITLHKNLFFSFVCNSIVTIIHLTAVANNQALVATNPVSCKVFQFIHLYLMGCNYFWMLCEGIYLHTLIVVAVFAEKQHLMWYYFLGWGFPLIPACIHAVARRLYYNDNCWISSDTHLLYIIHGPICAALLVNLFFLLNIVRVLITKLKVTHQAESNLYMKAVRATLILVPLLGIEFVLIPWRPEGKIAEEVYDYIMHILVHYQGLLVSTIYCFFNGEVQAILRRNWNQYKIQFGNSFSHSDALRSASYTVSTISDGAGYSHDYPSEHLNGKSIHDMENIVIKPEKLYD

Structure (SMILES) | Ki [1] | Ki [2]
CC(C)C[C@H](NC(=O)CNC(=O)[C@H](C)NC(=O)[C@H](CC(C)C)NC(=O)[C@H](CCCNC(=N)N)NC(=O)[C@H](Cc1cnc[nH]1)NC(=O)[C@@H](NC(=O)[C@@H](N)C(C)C)[C@@H](C)O)C(=O)N[C@@H](CC(C)C)C(=O)N[C@@H](CO)C(=O)N[C@@H](CCCNC(=N)N)C(=O)N[C@@H](CO)C(=O)NCC(=O)NCC(=O)N[C@H](C(=O)N[C@H](C(=O)N[C@@H](CCCCN)C(=O)N[C@@H](CC(N)=O)C(=O)N[C@@H](CC(N)=O)C(=O)N[C@@H](Cc1ccccc1)C(=O)N[C@H](C(=O)N1CCC[C@H]1C(=O)N[C@H](C(=O)N[C@@H](CC(N)=O)C(=O)N[C@H](C(=O)NCC(=O)N[C@@H](CO)C(=O)N[C@@H](CCCCN)C(=O)N[C@@H](C)C(=O)N[C@@H](Cc1ccccc1)C(N)=O)C(C)C)[C@@H](C)O)C(C)C)C(C)C)C(C)C | 5.7 nM | 
CC(C)C[C@H](NC(=O)CNC(=O)[C@H](C)NC(=O)[C@H](CC(C)C)NC(=O)[C@H](CCCN=C(N)N)NC(=O)[C@H](Cc1cnc[nH]1)NC(=O)[C@@H](NC(=O)[C@@H](N)C(C)C)[C@@H](C)O)C(=O)N[C@@H](CC(C)C)C(=O)N[C@@H](CO)C(=O)N[C@@H](CCCN=C(N)N)C(=O)N[C@@H](CO)C(=O)NCC(=O)NCC(=O)N[C@H](C(=O)N[C@H](C(=O)N[C@@H](CCCCN)C(=O)N[C@@H](CC(N)=O)C(=O)N[C@@H](CC(N)=O)C(=O)N[C@@H](Cc1ccccc1)C(=O)N[C@H](C(=O)N1CCC[C@H]1C(=O)N[C@H](C(=O)N[C@@H](CC(N)=O)C(=O)N[C@H](C(=O)NCC(=O)N[C@@H](CO)C(=O)N[C@@H](CCCCN)C(=O)N[C@@H](C)C(=O)N[C@@H](C)C(N)=O)C(C)C)[C@@H](C)O)C(C)C)C(C)C)C(C)C [[Ala37]h alpha-CGRP8-37] (H-VTHRLAGLLSRSGGVVKNNFVPTNVGSKAA-NH2) | 1020 nM | 500 nM
CC(C)C[C@H](NC(=O)CNC(=O)[C@H](C)NC(=O)[C@H](CC(C)C)NC(=O)[C@H](CCCN=C(N)N)NC(=O)[C@H](Cc1cnc[nH]1)NC(=O)[C@@H](NC(=O)[C@@H](N)C(C)C)[C@@H](C)O)C(=O)N[C@@H](CC(C)C)C(=O)N[C@@H](CO)C(=O)N[C@@H](CCCN=C(N)N)C(=O)N[C@@H](CO)C(=O)NCC(=O)NCC(=O)N[C@H](C(=O)N[C@H](C(=O)N[C@@H](CCCCN)C(=O)N[C@@H](CC(N)=O)C(=O)N[C@@H](CC(N)=O)C(=O)N[C@@H](Cc1ccccc1)C(=O)N[C@H](C(=O)N1CCC[C@H]1C(=O)N[C@H](C(=O)N[C@@H](CC(N)=O)C(=O)N[C@H](C(=O)NCC(=O)N[C@@H](CO)C(=O)N[C@@H](CCCCN)C(=O)N[C@@H](C)C(=O)N[C@@H](CC1CCCCC1)C(N)=O)C(C)C)[C@@H](C)O)C(C)C)C(C)C)C(C)C [[Cha37]h alpha-CGRP8-37] (HELM PEPTIDE1{V.T.H.R.L.A.G.L.L.S.R.S.G.G.V.V.K.N.N.F.V.P.T.N.V.G.S.K.A.[Cha].[am]}$$$$V2.0) | 37.9 nM | 32.7 nM
CC(=O)NCSC[C@H](NC(=O)[C@H](C)N)C(=O)N[C@@H](CC(=O)O)C(=O)N[C@H](C(=O)N[C@@H](C)C(=O)N[C@H](C(=O)N[C@@H](CSCNC(C)=O)C(=O)N[C@H](C(=O)N[C@H](C(=O)N[C@@H](Cc1cnc[nH]1)C(=O)N[C@@H](CCCNC(=N)N)C(=O)N[C@@H](CC(C)C)C(=O)N[C@@H](C)C(=O)NCC(=O)N[C@@H](CC(C)C)C(=O)N[C@@H](CC(C)C)C(=O)N[C@@H](CO)C(=O)N[C@@H](CCCNC(=N)N)C(=O)N[C@@H](CO)C(=O)NCC(=O)NCC(=O)N[C@H](C(=O)N[C@H](C(=O)N[C@@H](CCCCN)C(=O)N[C@@H](CC(N)=O)C(=O)N[C@@H](CC(N)=O)C(=O)N[C@@H](Cc1ccccc1)C(=O)N[C@H](C(=O)N1CCC[C@H]1C(=O)N[C@H](C(=O)N[C@@H](CC(N)=O)C(=O)N[C@H](C(=O)NCC(=O)N[C@@H](CO)C(=O)N[C@@H](CCCCN)C(=O)N[C@@H](C)C(=O)N[C@@H](Cc1ccccc1)C(N)=O)C(C)C)[C@@H](C)O)C(C)C)C(C)C)C(C)C)[C@@H](C)O)C(C)C)[C@@H](C)O)[C@@H](C)O [[Cys(ACM)2,7]h alpha-CGRP] | 32 nM | 38.4 nM
CC(C)C[C@H](NC(=O)CNC(=O)[C@H](C)NC(=O)[C@H](CC(C)C)NC(=O)[C@H](CCCNC(=N)N)NC(=O)[C@H](Cc1cnc[nH]1)NC(=O)[C@@H](NC(=O)[C@@H](NC(=O)[C@@H]1NC(=O)[C@H]([C@@H](C)O)NC(=O)[C@H](C)NC(=O)[C@H]([C@@H](C)O)NC(=O)[C@H](CC(=O)O)NC(=O)[C@H](NC(=O)[C@H](C)N)C(C)(C)SSC1(C)C)C(C)C)[C@@H](C)O)C(=O)N[C@@H](CC(C)C)C(=O)N[C@@H](CO)C(=O)N[C@@H](CCCNC(=N)N)C(=O)N[C@@H](CO)C(=O)NCC(=O)NCC(=O)N[C@H](C(=O)N[C@H](C(=O)N[C@@H](CCCCN)C(=O)N[C@@H](CC(N)=O)C(=O)N[C@@H](CC(N)=O)C(=O)N[C@@H](Cc1ccccc1)C(=O)N[C@H](C(=O)N1CCC[C@H]1C(=O)N[C@H](C(=O)N[C@@H](CC(N)=O)C(=O)N[C@H](C(=O)NCC(=O)N[C@@H](CO)C(=O)N[C@@H](CCCCN)C(=O)N[C@@H](C)C(=O)N[C@@H](Cc1ccccc1)C(N)=O)C(C)C)[C@@H](C)O)C(C)C)C(C)C)C(C)C [[D-Pen2,7]h alpha-CGRP] | 15.2 nM | 21 nM
CC(=O)N[C@H](C(=O)N[C@H](C(=O)N[C@@H](Cc1cnc[nH]1)C(=O)N[C@@H](CCCN=C(N)N)C(=O)N[C@@H](CC(C)C)C(=O)N[C@@H](C)C(=O)NCC(=O)N[C@@H](CC(C)C)C(=O)N[C@@H](CC(C)C)C(=O)N[C@@H](CO)C(=O)N[C@@H](CCCN=C(N)N)C(=O)N[C@@H](CO)C(=O)NCC(=O)NCC(=O)N[C@H](C(=O)N[C@H](C(=O)N[C@@H](CCCCN)C(=O)N[C@@H](CC(N)=O)C(=O)N[C@@H](CC(N)=O)C(=O)N[C@@H](Cc1ccccc1)C(=O)N[C@H](C(=O)N1CCC[C@H]1C(=O)N[C@H](C(=O)N[C@@H](CC(N)=O)C(=O)N[C@H](C(=O)NCC(=O)N[C@@H](CO)C(=O)N[C@@H](CCCCN)C(=O)N[C@@H](C)C(=O)N[C@@H](Cc1ccccc1)C(N)=O)C(C)C)[C@@H](C)O)C(C)C)C(C)C)C(C)C)[C@@H](C)O)C(C)C [[N-acetyl]h alpha-CGRP8-37] | 1.3 nM | 
CC(C)C[C@H](NC(=O)CNC(=O)[C@H](C)NC(=O)[C@H](CC(C)C)NC(=O)[C@H](CCCN=C(N)N)NC(=O)[C@H](Cc1cnc[nH]1)NC(=O)[C@@H](NC(=O)[C@@H](NCc1ccc(O)cc1)C(C)C)[C@@H](C)O)C(=O)N[C@@H](CC(C)C)C(=O)N[C@@H](CO)C(=O)N[C@@H](CCCN=C(N)N)C(=O)N[C@@H](CO)C(=O)NCC(=O)NCC(=O)N[C@H](C(=O)N[C@H](C(=O)N[C@@H](CCCCN)C(=O)N[C@@H](CC(N)=O)C(=O)N[C@@H](CC(N)=O)C(=O)N[C@@H](Cc1ccccc1)C(=O)N[C@H](C(=O)N1CCC[C@H]1C(=O)N[C@H](C(=O)N[C@@H](CC(N)=O)C(=O)N[C@H](C(=O)NCC(=O)N[C@@H](CO)C(=O)N[C@@H](CCCCN)C(=O)N[C@@H](C)C(=O)N[C@@H](Cc1ccccc1)C(N)=O)C(C)C)[C@@H](C)O)C(C)C)C(C)C)C(C)C [[N-benzol]h alpha-CGRP8-37] | 0.072 nM | 0.27 nM
CC(C)C[C@H](NC(=O)[C@H](CCCNC(=N)N)NC(=O)[C@H](Cc1cnc[nH]1)NC(=O)[C@@H](NC(=O)[C@@H](NC(=O)[C@@H]1CSSC[C@H](NC(=O)[C@H](C)N)C(=O)N[C@@H](CC(=O)O)C(=O)N[C@@H]([C@@H](C)O)C(=O)N[C@@H](C)C(=O)N[C@@H]([C@@H](C)O)C(=O)N1)C(C)C)[C@@H](C)O)C(=O)N[C@@H](C)C(=O)N1CCC[C@H]1C(=O)N[C@@H](CC(C)C)C(=O)N[C@@H](CC(C)C)C(=O)N[C@@H](CO)C(=O)N[C@@H](CCCNC(=N)N)C(=O)N[C@@H](CO)C(=O)NCC(=O)NCC(=O)N[C@H](C(=O)N[C@H](C(=O)N[C@@H](CCCCN)C(=O)N[C@@H](CC(N)=O)C(=O)N[C@@H](CC(N)=O)C(=O)N[C@@H](Cc1ccccc1)C(=O)N[C@H](C(=O)N1CCC[C@H]1C(=O)N[C@H](C(=O)N[C@@H](CC(N)=O)C(=O)N[C@H](C(=O)NCC(=O)N[C@@H](CO)C(=O)N[C@@H](CCCCN)C(=O)N[C@@H](C)C(=O)N[C@@H](Cc1ccccc1)C(N)=O)C(C)C)[C@@H](C)O)C(C)C)C(C)C)C(C)C [[Pro14]h alpha-CGRP] (HELM PEPTIDE1{A.C.D.T.A.T.C.V.T.H.R.L.A.P.L.L.S.R.S.G.G.V.V.K.N.N.F.V.P.T.N.V.G.S.K.A.F.[am]}$PEPTIDE1,PEPTIDE1,2:R3-7:R3$$$V2.0) | 5.5 nM | 9 nM
CC(C)[C@H](NC(=O)[C@H](CC(N)=O)NC(=O)[C@@H](NC(=O)[C@@H]1CCCN1C(=O)[C@@H](NC(=O)[C@@H](N)Cc1ccccc1)C(C)C)[C@@H](C)O)C(=O)NCC(=O)N1CCC[C@H]1C(=O)N[C@@H](Cc1ccccc1)C(=O)N[C@@H](C)C(=O)N[C@@H](Cc1ccccc1)C(N)=O [[Pro34,Phe35]h alpha-CGRP27-37] (H-FVPTNVGPFAF-NH2) | 118 nM | 50.7 nM
CC(C)C[C@H](NC(=O)CNC(=O)[C@H](C)NC(=O)[C@H](CC(C)C)NC(=O)[C@H](CCCNC(=N)N)NC(=O)[C@H](Cc1cnc[nH]1)NC(=O)[C@@H](NC(=O)[C@@H](NC(=O)[C@@H]1CSSC[C@H](NC(=O)[C@H](C)N)C(=O)N[C@@H](CC(=O)O)C(=O)N[C@@H]([C@@H](C)O)C(=O)N[C@@H](C)C(=O)N[C@@H]([C@@H](C)O)C(=O)N1)C(C)C)[C@@H](C)O)C(=O)N[C@@H](CC(C)C)C(=O)N[C@@H](CO)C(=O)N[C@@H](CCCNC(=N)N)C(=O)N[C@@H](CO)C(=O)NCC(=O)NCC(=O)N[C@H](C(=O)N[C@H](C(=O)N[C@@H](CCCCN)C(=O)N[C@@H](CC(N)=O)C(=O)N[C@@H](CC(N)=O)C(=O)N[C@@H](Cc1ccccc1)C(=O)N[C@H](C(=O)N1CCC[C@H]1C(=O)N[C@H](C(=O)N[C@@H](CC(N)=O)C(=O)N[C@H](C(=O)NCC(=O)N[C@@H](CO)C(=O)N[C@@H](CCCCN)C(=O)N[C@@H](C)C(=O)N[C@@H](Cc1ccccc1)C(N)=O)C(C)C)[C@@H](C)O)C(C)C)C(C)C)C(C)C [h alpha-CGRP] | 0.08 nM | 
